Where two headings read alike, the source gives them in different places.
Legend:
rice = assay: Test C flooded paddy test; format: in vivo, Oryza sativa; conditions: for plant injury at 62 g/ha / plant injury at 125 g/ha / plant injury at 250 g/ha / plant injury at 500 g/ha: Oryza sativa; for plant injury at 500 g/ha / Plant response rating, Rice: 500 g ai/ha, visual rating after 12 to 14 days; for plant injury at 500 g/ha: read-out: Plant response rating, Rice
Outline: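 Postemergence sprays applied to plants 2 to 18 cm tall (1- to 4-leaf stage); paddy species grown to 2-leaf stage under flooding. After 12 to 14 days in greenhouse, visual rating versus untreated controls on 0–100 scale (0 no effect, 100 complete control).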

ducksalad = assay: Test C flooded paddy test; format: in vivo, Heteranthera limosa; conditions: for pest or weed control at 62 g/ha / pest or weed control at 125 g/ha / pest or weed control at 250 g/ha / pest or weed control at 500 g/ha: Heteranthera limosa; for pest or weed control at 500 g/ha / Plant response rating, Ducksalad: 500 g ai/ha, visual rating after 12 to 14 days; for pest or weed control at 500 g/ha: read-out: Plant response rating, Ducksalad
barnyardgrass [1] = assay: Test C flooded paddy test; format: in vivo, Echinochloa crus-galli; conditions: for pest or weed control at 62 g/ha / pest or weed control at 125 g/ha / pest or weed control at 250 g/ha / pest or weed control at 500 g/ha: Echinochloa crus-galli; for pest or weed control at 62 g/ha / pest or weed control at 125 g/ha / pest or weed control at 250 g/ha: read-out: Barnyardgrass plant response rating; for pest or weed control at 500 g/ha / Plant response rating, Barnyardgrass: 500 g ai/ha, visual rating after 12 to 14 days; for pest or weed control at 500 g/ha: read-out: Plant response rating, Barnyardgrass
Outline: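 Plants were grown to the 1- to 4-leaf stage (2–18 cm) and then treated postemergence, or grown to the 2-leaf stage for the flooded paddy test. They were held in a greenhouse for 12 to 14 days and then scored by eye against controls, where 0 is no effect and 100 is complete control.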

velvetleaf = assay: Test A pre-/postemergence herbicide test; format: in vivo, Abutilon theophrasti; conditions: Abutilon theophrasti, 240 h; for pest or weed control at 500 g/ha: 500 g ai/ha; for pest or weed control at 2000 g/ha: 2000 g ai/ha
Outline: (§1)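 Sandy loam soil given preemergence directed spray; plants at 2 to 10 cm, one- to two-leaf stage, sprayed to runoff postemergence, compounds in non-phytotoxic solvent with surfactant. Injury rated visually versus untreated controls after about ten greenhouse days, 0 (no effect) to 100 (complete control); dash means not tested.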

barnyardgrass [2] = assay: Test A pre-/postemergence herbicide test; format: in vivo, Echinochloa crus-galli; conditions: Echinochloa crus-galli, 240 h; for pest or weed control at 500 g/ha: 500 g ai/ha; for pest or weed control at 2000 g/ha: 2000 g ai/ha
Outline: as §1

redroot pigweed = assay: Test A pre-/postemergence herbicide test; format: in vivo, Amaranthus retroflexus; conditions: Amaranthus retroflexus, 240 h; for pest or weed control at 500 g/ha: 500 g ai/ha; for pest or weed control at 2000 g/ha: 2000 g ai/ha
Outline: as §1

[3] = 62 g ai/ha, scale 0 to 100 (0 no effect, 100 complete control), read-out: Rice plant response rating
[4] = 125 g ai/ha, scale 0 to 100 (0 no effect, 100 complete control), read-out: Rice plant response rating
[5] = 250 g ai/ha, scale of 0 to 100, 0 is no effect, 100 is complete control, read-out: Rice plant response rating
[6] = scale 0 to 100 (0 no effect, 100 complete control)
[7] = 62 g ai/ha, scale 0 to 100 (0 no effect, 100 complete control), read-out: Ducksalad plant response rating
[8] = 125 g ai/ha, scale 0 to 100 (0 no effect, 100 complete control), read-out: Ducksalad plant response rating
[9] = 250 g ai/ha, scale of 0 to 100, 0 is no effect, 100 is complete control, read-out: Ducksalad plant response rating
[10] = 62 g ai/ha, scale 0 to 100 (0 no effect, 100 complete control)
[11] = 125 g ai/ha, scale 0 to 100 (0 no effect, 100 complete control)
[12] = 250 g ai/ha, scale of 0 to 100, 0 is no effect, 100 is complete control
[13] = post-emergence, Postemergence, 0 to 100 scale, 0 no effect, 100 complete control, read-out: Velvetleaf plant response rating
[14] = post-emergence, Postemergence, 0 to 100 scale, 0 no effect, 100 complete control, read-out: Plant response rating, Velvetleaf
[15] = pre-emergence, Preemergence, visual rating, 0 to 100 scale (0 no effect, 100 complete control), read-out: Velvetleaf plant response rating
[16] = pre-emergence, preemergence, visual injury, 0 to 100 scale (0 no effect, 100 complete control), read-out: Velvetleaf plant response rating
[17] = post-emergence, Postemergence, 0 to 100 scale, 0 no effect, 100 complete control, read-out: Barnyardgrass plant response rating
[18] = post-emergence, Postemergence, 0 to 100 scale, 0 no effect, 100 complete control, read-out: Plant response rating, Barnyardgrass
[19] = pre-emergence, Preemergence, visual rating, 0 to 100 scale (0 no effect, 100 complete control), read-out: Barnyardgrass plant response rating
[20] = post-emergence, Postemergence, 0 to 100 scale, 0 no effect, 100 complete control, read-out: Pigweed plant response rating
[21] = post-emergence, Postemergence, 0 to 100 scale, 0 no effect, 100 complete control, read-out: Plant response rating, Pigweed
[22] = pre-emergence, Preemergence, visual rating, 0 to 100 scale (0 no effect, 100 complete control), read-out: Pigweed plant response rating
[23] = pre-emergence, preemergence, visual injury, 0 to 100 scale (0 no effect, 100 complete control), read-out: Pigweed plant response rating

Compound | plant injury at 125 g/ha (rice; [4]) | plant injury at 250 g/ha (rice; [5]) | plant injury at 500 g/ha (rice; [6]) | pest or weed control at 125 g/ha (ducksalad; [8]) | pest or weed control at 250 g/ha (ducksalad; [9]) | pest or weed control at 500 g/ha (ducksalad; [6]) | pest or weed control at 62 g/ha (barnyardgrass [1]; [10]) | pest or weed control at 125 g/ha (barnyardgrass [1]; [11]) | Rice plant response rating (rice; 62 g ai/ha, scale 0 to 100) | Rice plant response rating (rice; [11]) | Rice plant response rating (rice; [12]) | Plant response rating, Rice (rice; [6]) | Ducksalad plant response rating (ducksalad; 62 g ai/ha, scale 0 to 100) | Ducksalad plant response rating (ducksalad; [11]) | Ducksalad plant response rating (ducksalad; [12]) | Plant response rating, Ducksalad (ducksalad; [6]) | Barnyardgrass plant response rating (barnyardgrass [1]; [10]) | Barnyardgrass plant response rating (barnyardgrass [1]; [11]) | Barnyardgrass plant response rating (barnyardgrass [1]; [12]) | Plant response rating, Barnyardgrass (barnyardgrass [1]; [6]) | further results
CCn1nc(C(C)(C)C)cc1C(=O)Nc1ccc(F)c(C(=O)N(C)C)c1 [Compound 236, N-[3-[(dimethylamino)carbonyl]-4-fluorophenyl]-3-(1,1-dimethylethyl)-1-ethyl-1H-pyrazole-5-carboxamide] | 30% | 60% | 70% | 40% | 55% | 80% | 0% | 0% |  |  |  |  |  |  |  |  |  |  |  |  | plant injury at 62 g/ha (rice; [3]): 0%; pest or weed control at 62 g/ha (ducksalad; [7]): 0%; pest or weed control at 250 g/ha (barnyardgrass [1]; [12]): 15%; pest or weed control at 500 g/ha (barnyardgrass [1]; [6]): 40%
CCc1nn(C(C)C)nc1C(=O)Nc1cccc(C(=O)N(C)C)c1 [Compound 358, N-[3-[(dimethylamino)carbonyl)phenyl]-5-ethyl-2-(1-methylethyl)-2H-1,2,3-triazole-4-carboxamide] | 65% | 70% | 85% | 80% | 90% | 95% | 0% | 60% |  |  |  |  |  |  |  |  |  |  |  |  | plant injury at 62 g/ha (rice; 62 g ai/ha, scale 0 to 100, read-out: Rice plant response rating): 20%; pest or weed control at 62 g/ha (ducksalad; 62 g ai/ha, scale 0 to 100, read-out: Ducksalad plant response rating): 0%; pest or weed control at 250 g/ha (barnyardgrass [1]; [12]): 75%; pest or weed control at 500 g/ha (barnyardgrass [1]; [6]): 85%
CCn1nc(C(C)(C)C)cc1C(=O)Nc1cccc(C(=O)OC)n1 [Compound 143, methyl 6-[[[3-(1,1-dimethylethyl)-1-ethyl-1H-pyrazol-5-yl]carbonyl]amino]-2-pyridinecarboxylate] |  |  |  |  |  |  |  |  |  |  |  |  |  |  |  |  |  |  |  |  | pest or weed control at 500 g/ha (velvetleaf; [13]): 0%; pest or weed control at 2000 g/ha (velvetleaf; [14]): 15%; pest or weed control at 2000 g/ha (velvetleaf; [15]): 0%; pest or weed control at 500 g/ha (velvetleaf; [16]): 0%; pest or weed control at 500 g/ha (barnyardgrass [2]; [17]): 10%; pest or weed control at 2000 g/ha (barnyardgrass [2]; [18]): 25%; pest or weed control at 500 g/ha (barnyardgrass [2]; [19]): 0%; pest or weed control at 2000 g/ha (barnyardgrass [2]; [19]): 0%; pest or weed control at 500 g/ha (redroot pigweed; [20]): 20%; pest or weed control at 2000 g/ha (redroot pigweed; [21]): 35%; pest or weed control at 2000 g/ha (redroot pigweed; [22]): 0%; pest or weed control at 500 g/ha (redroot pigweed; [23]): 0%
CCOC(=O)c1ccc(F)c(NC(=O)C2CC(C(C)(C)C)=NN2CC)c1 (stereo not drawn) [Compound 267, ethyl 3-[[[3-(1,1-dimethylethyl)-1-ethyl-4,5-dihydro-1H-pyrazol-5-yl]carbonyl]amino]-4-fluorobenzoate] |  |  |  |  |  |  |  |  |  |  |  |  |  |  |  |  |  |  |  |  | pest or weed control at 500 g/ha (velvetleaf; [13]): 30%; pest or weed control at 2000 g/ha (velvetleaf; [14]): 35%; pest or weed control at 2000 g/ha (velvetleaf; [15]): 60%; pest or weed control at 500 g/ha (velvetleaf; [16]): 25%; pest or weed control at 500 g/ha (barnyardgrass [2]; [17]): 40%; pest or weed control at 2000 g/ha (barnyardgrass [2]; [18]): 65%; pest or weed control at 2000 g/ha (barnyardgrass [2]; [19]): 80%; pest or weed control at 500 g/ha (barnyardgrass [2]; pre-emergence, preemergence, visual injury, 0 to 100 scale (0 no effect, 100 complete control), read-out: Barnyardgrass plant response rating): 70%; pest or weed control at 500 g/ha (redroot pigweed; [20]): 40%; pest or weed control at 2000 g/ha (redroot pigweed; [21]): 60%; pest or weed control at 2000 g/ha (redroot pigweed; [22]): 80%; pest or weed control at 500 g/ha (redroot pigweed; [23]): 5%
CCOC(=O)c1ccc(F)c(NC(=O)c2cc(C3(C)CC3)nn2CC)c1 [Compound 296] |  |  |  |  |  |  |  |  | 20 | 20 | 40 | 60 | 0 | 0 | 40 | 70 | 15 | 25 | 50 | 65 | 
C=CCOc1cccc(NC(=O)c2cc(C(C)(C)C)nn2CC)c1 [Compound 412] |  |  |  |  |  |  |  |  | 15 | 20 | 20 | 50 | 0 | 30 | 60 | 90 | 0 | 20 | 35 | 45 | 
CCn1nc(C(C)(C)C)cc1C(=O)Nc1cc(C(=O)OC)ccn1 [Compound 151, methyl 2-[[[3-(1,1-dimethylethyl)-1-ethyl-1H-pyrazol-5-yl]carbonyl]amino]-4-pyridinecarboxylate] |  |  |  |  |  |  |  |  |  |  |  |  |  |  |  |  |  |  |  |  | pest or weed control at 500 g/ha (velvetleaf; [13]): 35%; pest or weed control at 2000 g/ha (velvetleaf; [14]): 60%; pest or weed control at 2000 g/ha (velvetleaf; [15]): 10%; pest or weed control at 500 g/ha (velvetleaf; [16]): 0%; pest or weed control at 500 g/ha (barnyardgrass [2]; [17]): 10%; pest or weed control at 2000 g/ha (barnyardgrass [2]; [18]): 10%; pest or weed control at 500 g/ha (barnyardgrass [2]; [19]): 0%; pest or weed control at 2000 g/ha (barnyardgrass [2]; [19]): 0%; pest or weed control at 500 g/ha (redroot pigweed; [20]): 35%; pest or weed control at 2000 g/ha (redroot pigweed; [21]): 70%; pest or weed control at 2000 g/ha (redroot pigweed; [22]): 0%; pest or weed control at 500 g/ha (redroot pigweed; [23]): 0%
CCNC(=O)c1cc(NC(=O)c2cn(C(C)(C)C)nc2CC)ccc1F [Compound 241, 1-(1,1-dimethylethyl)-3-ethyl-N-[3-[(ethylamino)carbonyl]-4-fluorophenyl]-1H-pyrazole-4-carboxamide] | 0% | 30% | 65% | 0% | 0% | 15% | 0% | 0% |  |  |  |  |  |  |  |  |  |  |  |  | plant injury at 62 g/ha (rice; [3]): 0%; pest or weed control at 62 g/ha (ducksalad; [7]): 0%; pest or weed control at 250 g/ha (barnyardgrass [1]; [12]): 0%; pest or weed control at 500 g/ha (barnyardgrass [1]; [6]): 30%
C#CCOc1cccc(NC(=O)c2cc(C(C)(C)C)nn2CC)c1 [Compound 411] |  |  |  |  |  |  |  |  | 0 | 25 | 35 | 35 | 25 | 50 | 70 | 80 | 15 | 25 | 40 | 45 | 
C#CCNC(=O)c1cccc(NC(=O)c2nn(C(C)(C)C)nc2CC)c1 [Compound 380] |  |  |  |  |  |  |  |  | 45 | 65 | 70 | 75 | 25 | 50 | 75 | 85 | 35 | 45 | 65 | 70 | 

— US20060069132A1, “Azolecarboxamide herbicides” (priority 2004, published 2006)
